Measurements: patent publication US7135182B2, “Inhibition of transglutaminase-mediated microbial interaction with a mammalian host” (priority 1998, dated 2006)

Columns and labels:
[1] = target: T1, guinea pig liver transglutaminase (UniProt P08587); assay: Fluorescence assay of transglutaminase-catalyzed cross-linking of 5-(biotinamido)pentylamine to C. albicans germ tube surfaces; format: biochemical; details: C. albicans SC5314 germ tubes; EGTA 20 mM (FIG. 2B)
T1 construct: guinea pig liver transglutaminase (8.5 μg); from tissue; host or cells: guinea pig liver
Protocol: To detect germ tube surface proteins serving as glutamine donors in transglutaminase-catalyzed cross-linking reactions, a fluorescence assay using a biotinylated lysine analogue as the primary amine acceptor and liver transglutaminase was developed.
Washed M199-germinated C. albicans cells (10^8/ml), guinea pig liver transglutaminase (8.5 μg), and 5-(biotinamido)pentylamine (30 μM) (Pierce) were incubated in reaction buffer 1 (400 μl) (100 mM Tris-Cl pH 7.5, 5 mM CaCl2, 1 mM DTT, 2 mM EDTA) for 15 minutes at 37° C. Reactions were stopped with EDTA (10 mM), germ tubes were washed with distilled water, spotted onto microscope slides, air dried, incubated with avidin-FITC (1:100) (Zymed) and BSA-rhodamine (1:30) (Difco) in PBS at 37° C., washed and examined by fluorescence microscopy.

[2] = test system: adhesion of C. albicans germ tubes (UnoPP-1) to human buccal epithelial cells (BECs); assay: Stabilized (covalent) adhesion of radiolabeled C. albicans germ tubes to human buccal epithelial cells; format: cell-based, Candida albicans
Protocol: Mass conversion of yeasts, radiolabeled with Tran^35S-label (ICN) (5 μCi/ml), to germ tubes (5×10^6/ml) was induced in prewarmed M199 (40 ml) for 2.5 hours at 37° C. No differences in the proportion of (>95%) germ tubes or in germ tube length were seen among strains. Washed germ tubes and BECs from a healthy donor, suspended in 300 μl of reaction buffer 3 (50 mM Tris-Cl pH 7.5, 10 mM CaCl2, 1 mM EDTA, 1 mM DTT), at a germ tube/BEC ratio of 100:1, were mixed, incubated for 1 hour at 37° C. followed by reaction termination with 100 mM EGTA (75 μl). The BEC donors understood the nature of the studies and consented to provide BECs. Radioactivity of BEC fractions was determined by scintillation counting after centrifugation on 50% Percoll gradients, and germ tubes per BEC was determined using the specific activity of each strain. Background counts, determined from gradients with germ tubes only, were less than 6% of counts for germ tube/BEC mixtures and were subtracted from counts of epithelial cell-germ tube mixtures. […]
Radiolabeled germ tubes of the control strain, UnoPP-1, were incubated with BECs at a ratio of 100:1 with or without 5 or 10 mM monodansylcadaverine in reaction buffer 3, supra. […] The cell mixtures were incubated for 1 hour at 37° C., and the number of germ tubes covalently attached to BECs were determined. […]

T1 sequence (P08587 whole entry): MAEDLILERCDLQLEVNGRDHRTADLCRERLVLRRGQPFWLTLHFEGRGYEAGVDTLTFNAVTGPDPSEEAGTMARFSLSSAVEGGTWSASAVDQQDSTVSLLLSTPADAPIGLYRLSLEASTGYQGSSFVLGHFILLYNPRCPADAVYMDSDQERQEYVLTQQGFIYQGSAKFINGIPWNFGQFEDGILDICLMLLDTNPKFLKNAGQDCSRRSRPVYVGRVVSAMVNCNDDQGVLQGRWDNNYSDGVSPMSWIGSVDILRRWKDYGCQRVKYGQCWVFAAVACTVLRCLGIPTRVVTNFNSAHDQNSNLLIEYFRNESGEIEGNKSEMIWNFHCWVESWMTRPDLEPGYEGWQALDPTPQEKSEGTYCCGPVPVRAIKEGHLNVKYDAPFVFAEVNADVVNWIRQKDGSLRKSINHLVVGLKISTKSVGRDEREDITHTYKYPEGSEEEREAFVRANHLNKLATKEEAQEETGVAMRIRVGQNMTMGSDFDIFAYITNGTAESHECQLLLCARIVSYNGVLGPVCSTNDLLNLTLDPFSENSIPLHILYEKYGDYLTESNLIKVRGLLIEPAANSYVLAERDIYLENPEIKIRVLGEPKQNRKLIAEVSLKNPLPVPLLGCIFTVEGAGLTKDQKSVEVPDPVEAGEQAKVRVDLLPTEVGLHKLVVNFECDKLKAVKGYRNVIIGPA

Row | Compound | effect on transglutaminase-mediated fluorescence labelling of germ tubes [1] | stabilized adhesion of UnoPP-1 to BECs with transglutaminase inhibited ([2]; iodoacetamide 10 mM, BECs pretreated 15 minutes, CAH7-1A was 23% of UnoPP-1) | reduction of adhesion of germ tubes to BEC relative to DMSO control ([2]; 5 or 10 mM, UnoPP-1 germ tubes/BEC 100:1, 1 hour at 37° C., covalently attached germ tubes)
1 | NC(=O)CI [iodoacetamide] | inhibited | low level of stabilized adhesion of CAH7-1A was equivalent to that of UnoPP-1 | 
2 | O=C(O)CN(CCOCCOCCN(CC(=O)O)CC(=O)O)CC(=O)O [EGTA] | inhibited |  | 
3 | CN(C)c1cccc2c(S(=O)(=O)NCCCCCN)cccc12 [monodansylcadaverine] |  |  | approximately 87%
